{
  "source": "paper PMC3647702",
  "about": "(ACS medicinal chemistry letters, 2013)",
  "key": {"[1]": {"tested_on": "42 Tier 2 clade B and C viruses", "conditions": "read-out: geometric mean titers (GMT) IC50, sensitive strains; cited from earlier work"}, "[2]": {"tested_on": "HIV-1YU2 virus in CD4 negative Cf2Th-CCR5 cells", "conditions": "cells lacking the CD4 receptor (CD4–CCR5+ Cf2Th cells); cited from earlier work"}, "full-length gp120": {"biological_target": "full-length gp120 (Human immunodeficiency virus type 1 group M subtype B, UniProt P35961)", "conditions": "gp120 binding; cited from earlier work"}, "clade B viruses": {"tested_on": "clade B viruses", "experiment": "Neutralization of clade B Env pseudoviruses", "type": "cell-based, HIV-1"}, "clade C viruses": {"tested_on": "clade C viruses", "experiment": "Neutralization of clade C Env pseudoviruses", "type": "cell-based, HIV-1"}},
  "note": "pIC50: −log10 of the molar value.",
  "data": [
    {"smiles": "N=C(N)N[C@@H]1Cc2ccccc2[C@H]1NC(=O)C(=O)Nc1ccc(Cl)c(F)c1", "note": "[(−)-3]", "values": [
      {"measurement": "pIC50", "setting": "[1]", "result": 5.05}
    ]},
    {"smiles": "CC1(C)CC(NC(=O)C(=O)Nc2ccc(Cl)cc2)CC(C)(C)N1", "note": "[Compound 1, NBD-556]", "values": [
      {"measurement": "CD4-independent viral entry", "setting": "[2]", "result": "agonists of CD4-independent viral entry"},
      {"measurement": "ΔH", "setting": "full-length gp120", "result": -103, "unit": "kJ/mol"},
      {"measurement": "−TΔS", "setting": "full-length gp120", "result": 71.5, "unit": "kJ/mol"}
    ]},
    {"smiles": "N=C(N)NC[C@H]1Cc2ccccc2[C@@H]1NC(=O)C(=O)Nc1ccc(Cl)c(F)c1.O=CO", "note": "[(+)-4]", "values": [
      {"measurement": "improvement over (+)-3 based on IC50 titers", "setting": "clade B viruses", "result": 60, "unit": "%"},
      {"measurement": "improvement over (+)-3 based on IC80 titers", "setting": "clade B viruses", "result": 1.5, "unit": "fold"},
      {"measurement": "neutralization breadth", "setting": "clade B viruses", "result": 100, "unit": "%"},
      {"measurement": "neutralization breadth", "setting": "clade C viruses", "result": 59, "unit": "%"}
    ]},
    {"smiles": "N=C(N)N[C@H]1Cc2ccccc2[C@@H]1NC(=O)C(=O)Nc1ccc(Cl)c(F)c1", "note": "[(+)-3]", "values": [
      {"measurement": "pIC50", "setting": "[1]", "result": 5.10}
    ]}
  ]
}
